Consider 18 molecules from patent US11752091B2, “Composition for strengthening skin barrier, moisturizing skin or anti-aging” (COSMAX, INC., priority 2020, dated 2023).

Holding throughout (details): 37° C., 48 hours (examined up to 72 hours); well color change to purple or red
The test system of one experiment is S. pneumoniae (CX-2). It is filed as cell-based, Streptococcus pneumoniae. The procedure:
(§1) To analyze substance utilization by the isolated strains (Streptococcus pneumoniae, Streptococcus infantis, and Streptococcus mitis), tests were conducted in the following manner. BioLOG GP2 and API 50 were used in determining the substance utilization, and testing was performed using testing methods provided by Omnilog and Biomeriuse. The culturing temperature and media suitable to corresponding strains were selected, and 5 among cluster colonies incubated for 48 hours were taken and suspended in reagents before use. The inoculation amount was 150 μl. As the suspension, components of kits provided by various manufacturers were used. When the strains are yet to be inoculated, the suspension is in a transparent liquid phase. Inoculated plates and strips were incubated at 37° C. for 48 hours, and then the incubation of up to 72 hours was examined. Wells were in a transparent liquid phase at the time of inoculating, but the colors of the wells changed to purple or red, and the color-changed wells were determined to be positive.

The subject of a further experiment is S. infantis (CX-4). In words: Substance utilization by isolated strains (BioLOG GP2, API 50). The format is cell-based, Streptococcus infantis. As to the method:
as §1

The subject of a further experiment is S. mitis (CX-8). Described as above. The format is cell-based, Streptococcus mitis. The procedure:
as §1

Turning to `[Cl-].[Na+]` [1% NaCl, NaCl], in the experiment on S. pneumoniae (CX-2), the “substance utilization, S. pneumoniae (CX-2)” value (“substance utilization … (CX-2)” for short) is on record as “+”. In the experiment on S. infantis (CX-4), the “substance utilization, S. infantis (CX-4)” value was “+”. For the same molecule, the “substance utilization, S. mitis (CX-8)” value with S. mitis (CX-8) was “+”.

With `CC(O)C(=O)[O-].[Na+]` (stereo not shown) [1% Sodium Lactate, Sodium Lactate], in the experiment on S. pneumoniae (CX-2), the “substance utilization … (CX-2)” value is reported as “+”. Also, the “substance utilization, S. infantis (CX-4)” value in the experiment with S. infantis (CX-4) was “+”. The “substance utilization, S. mitis (CX-8)” value in the experiment with S. mitis (CX-8) is reported as “+”.

For the molecule `OC[C@H]1O[C@@H](O[C@H]2[C@H](O)[C@@H](O)[C@H](O)O[C@@H]2CO)[C@H](O)[C@@H](O)[C@@H]1O` [D-Cellobiose], the “substance utilization … (CX-2)” value with S. pneumoniae (CX-2) is “+”. Besides, the “substance utilization, S. infantis (CX-4)” value with S. infantis (CX-4) was “+”. In addition, in the experiment with S. mitis (CX-8), the “substance utilization, S. mitis (CX-8)” value was “+”.

`O=P(O)(O)OC[C@H]1OC(O)(CO)[C@@H](O)[C@@H]1O` (stereo partly drawn) [D-Fructose-6-Po4]: the “substance utilization, S. mitis (CX-8)” value in the experiment on S. mitis (CX-8) was “+”.

As to `OC[C@H]1O[C@H](OCC2O[C@@H](O)[C@H](O)[C@@H](O)[C@@H]2O)[C@H](O)[C@@H](O)[C@H]1O` (stereo partly drawn) [D-Melibiose], the “substance utilization … (CX-2)” value in the experiment on S. pneumoniae (CX-2) is reported as “+”.

Consider `OC[C@H]1O[C@H](OC[C@H]2O[C@H](O[C@]3(CO)O[C@H](CO)[C@@H](O)[C@@H]3O)[C@H](O)[C@@H](O)[C@@H]2O)[C@H](O)[C@@H](O)[C@H]1O` [D-Raffinose], for which the “substance utilization … (CX-2)” value with S. pneumoniae (CX-2) is “+”.

`OC[C@H]1O[C@H](O[C@H]2[C@H](O)[C@@H](O)[C@H](O)O[C@@H]2CO)[C@H](O)[C@@H](O)[C@@H]1O` [D-maltose]: the “substance utilization … (CX-2)” value in the experiment with S. pneumoniae (CX-2) is listed as “+”. Further, in the experiment with S. infantis (CX-4), the “substance utilization, S. infantis (CX-4)” value is reported as “+”. Besides, in the experiment with S. mitis (CX-8), the “substance utilization, S. mitis (CX-8)” value is on record as “+”.

As to `O=C1O[C@H]([C@@H](O)CO)[C@@H](O)[C@@H]1O` [L-Galactonic Acid Lactone], the “substance utilization, S. mitis (CX-8)” value with S. mitis (CX-8) is given as “+”.

Regarding `[Cl-].[Li+]` [Lithium Chloride], the “substance utilization, S. mitis (CX-8)” value in the experiment on S. mitis (CX-8) is given as “+”.

In the case of `O=[Te]([O-])[O-].[K+].[K+]` [Potassium Tellurite], the “substance utilization … (CX-2)” value in the experiment with S. pneumoniae (CX-2) was “+”. In the experiment with S. infantis (CX-4), the “substance utilization, S. infantis (CX-4)” value is given as “+”. Further, in the experiment with S. mitis (CX-8), the “substance utilization, S. mitis (CX-8)” value is reported as “+”.

Take `CO[C@H]1/C=C/O[C@@]2(C)Oc3c(C)c([O-])c4c(O)c(cc(O)c4c3C2=O)NC(=O)/C(C)=C\C=C\[C@H](C)[C@H](O)[C@@H](C)[C@@H](O)[C@@H](C)[C@H](OC(C)=O)[C@@H]1C.[Na+]` [Rifamycin SV]: the “substance utilization, S. infantis (CX-4)” value in the experiment with S. infantis (CX-4) was “+”. In addition, the “substance utilization, S. mitis (CX-8)” value in the experiment with S. mitis (CX-8) is “+”.

As to `OC[C@H]1O[C@H](OC[C@H]2O[C@H](OC[C@H]3O[C@H](O[C@]4(CO)O[C@H](CO)[C@@H](O)[C@@H]4O)[C@H](O)[C@@H](O)[C@@H]3O)[C@H](O)[C@@H](O)[C@H]2O)[C@H](O)[C@@H](O)[C@H]1O` [Stachyose], the “substance utilization … (CX-2)” value in the experiment with S. pneumoniae (CX-2) is reported as “+”. The “substance utilization, S. infantis (CX-4)” value in the experiment on S. infantis (CX-4) is “+”. In addition, the “substance utilization, S. mitis (CX-8)” value in the experiment with S. mitis (CX-8) was “+”.

Turning to `COc1cc(-c2ccc(-n3nc(-c4ccccc4)n[n+]3-c3ccccc3)c(OC)c2)ccc1-n1nc(-c2ccccc2)n[n+]1-c1ccccc1.[Cl-].[Cl-]` [Tetrazolium Blue], the “substance utilization, S. infantis (CX-4)” value in the experiment on S. infantis (CX-4) is “+”. Besides, in the experiment on S. mitis (CX-8), the “substance utilization, S. mitis (CX-8)” value is on record as “+”.

As for D-Salicin, the “substance utilization, S. mitis (CX-8)” value with S. mitis (CX-8) was “+”.

Take D-Turanose: the “substance utilization … (CX-2)” value in the experiment with S. pneumoniae (CX-2) is given as “+”.

For Dextrin, the “substance utilization … (CX-2)” value with S. pneumoniae (CX-2) was “+”. Further, in the experiment on S. infantis (CX-4), the “substance utilization, S. infantis (CX-4)” value was “+”. Also, in the experiment with S. mitis (CX-8), the “substance utilization, S. mitis (CX-8)” value was “+”.

Consider Pectin, for which the “substance utilization … (CX-2)” value in the experiment with S. pneumoniae (CX-2) is given as “+”. Moreover, the “substance utilization, S. infantis (CX-4)” value with S. infantis (CX-4) is “+”. The “substance utilization, S. mitis (CX-8)” value in the experiment on S. mitis (CX-8) is recorded as “+”.

For Tween 40, the “substance utilization … (CX-2)” value in the experiment with S. pneumoniae (CX-2) was “+”. Moreover, the “substance utilization, S. infantis (CX-4)” value in the experiment with S. infantis (CX-4) is recorded as “+”.
